This note sets out measurements from patent EP4194000A1, “CISTUS MONSPELIENSIS EXTRACT AND COMPOSITIONS COMPRISING SAME FOR SKIN SOOTHING” (Pierre Fabre Dermo-Cosmétique, priority 2021, dated 2023).

pEC50: −log10 of the molar value. Ends that are not written are not given here.

Holding throughout (format): cell-based, humains
For one test, the system named is IL-22. In words: IL-22 release by isolated, amplified Th17 lymphocytes stimulated with anti-CD3/anti-CD28 beads (ELISA). An excerpt: (§1) Le but de cette étude est d'évaluer l'activité potentielle d'un extrait de Cistus monspeliensis selon l'invention pour moduler la production de cytokines impliquées dans le psoriasis et la dermatite atopique. Pour se faire, des lymphocytes Th17 isolés et amplifiés à partir du sang circulant de donneurs sont utilisés comme modèle in vitro d'immunopathogénèse du psoriasis. […]
(§2) Les lymphocytes T sont triés à partir de cellules sanguines récupérées de poches de sang fournies par l'Etablissement Français du sang, pour obtenir le phénotype suivant : CD4+ CD45RA- CXCR3- CCR6+. Le nombre de lymphocytes Th17 ainsi obtenu est augmenté par une mise en culture de ces cellules en présence d'un mélange de cytokines (IL-2, anti-TNFα et anti-INFγ) pendant deux semaines.
(§3) Le test est réalisé sur des lymphocytes Th17 humains isolés et amplifiés en absence (conditions contrôle) ou en présence (traité) des composés à tester et sont stimulés ou non par les facteurs de stimulation anti-CD3/anti-CD28.
(§4) Les teneurs des cytokines pro-inflammatoires de Th17 (IL-17 et IL-22) sont quantifiées 24h après la stimulation.
(§5) Les lymphocytes sont traités avec les composés à tester 30 minutes avant la stimulation et pendant 24 heures.
(§6) La Nicardipine, bloqueur des canaux calciques non-sélectifs a été testée (10 µg/ml), solubilisée également dans le DMSO, est utilisée comme contrôle positif. […]
On the technique in general: In an ELISA, binding on a coated surface is turned into a signal by an enzyme label.

The test system of another test is IL-17. Kind of test: IL-17 release by isolated, amplified Th17 lymphocytes stimulated with anti-CD3/anti-CD28 beads (ELISA).
Source text: as §1, §2, §3, §4, §5, §6

For another test, the target named is T1, PAR-2 (Homo sapiens, UniProt P55085).
T1 construct: expressed in transfected cells; host or cells: CHO-K1 mt aequorin (parental line named; inferred to be the host of the recombinant cells)
T1 sequence (P55085 26-397): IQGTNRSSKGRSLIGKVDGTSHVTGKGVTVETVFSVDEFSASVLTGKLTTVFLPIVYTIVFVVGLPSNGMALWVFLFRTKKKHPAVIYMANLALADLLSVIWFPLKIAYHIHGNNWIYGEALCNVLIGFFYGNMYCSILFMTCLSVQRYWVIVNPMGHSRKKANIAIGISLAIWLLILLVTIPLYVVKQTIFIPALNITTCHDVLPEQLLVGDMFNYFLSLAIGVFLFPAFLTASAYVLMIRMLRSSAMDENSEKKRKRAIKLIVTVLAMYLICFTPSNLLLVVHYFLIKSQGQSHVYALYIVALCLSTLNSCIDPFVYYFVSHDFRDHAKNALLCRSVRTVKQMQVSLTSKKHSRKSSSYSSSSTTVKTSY
Kind of test: Aequorin test, agonist activity on recombinant PAR-2. The conditions noted are these: reference agonist for PAR-2; read-out: CE50 (the source's name). An excerpt: Les inventeurs ont évalué les effets d'un extrait de Cistus monspeliensis sur deux cibles étroitement reliées au prurit, PAR-2 et MRGPRX2.
Les PAR-2 sont des récepteurs couplés aux protéines G. PAR-2 module les réponses inflammatoires, joue un rôle dans l'obésité, le métabolisme et les cancers. PAR-2 agit comme un senseur pour des enzymes protéolytiques générées pendant l'infection. PAR-2 serait retrouvé dans les kératinocytes épidermiques au niveau de la couche stratum granulosum. Des PAR-2 fonctionnels sont également exprimés dans plusieurs types de cellules immunitaires, telles que les éosinophiles, les neutrophiles, les monocytes, les macrophages, les cellules dendritiques, les mastocytes et les cellules T. Le PAR-2 est activé par clivage protéolytique par la tryptase qui est la protéase principale des cellules mastocytaires et la kallikréine qui est impliquée dans des processus inflammatoires et d'homéostasie épidermique. De plus, le clivage protéolytique de PAR-2 induit une signalisation calcique s'il est exprimé dans les neurones participant à la voie afférente. L'activation de MRGPRX2 ([…] G-Protein coupled Receptor) entraine une dégranulation des cellules mastocytaires avec par la suite des réactions pseudo-allergiques. […]

A further test relates to substance P. In words: Substance P release by sensory neurons derived from human pluripotent stem cells, stimulated with veratridine (ELISA). An excerpt: Le but de cette étude est d'évaluer les propriétés modulatrices d'un extrait de Cistus monspeliensis dans l'inflammation neurogène cutanée.
Pour se faire, les inventeurs ont développé une approche expérimentale in vitro. Un modèle original de neurones sensoriels humains a été développé après une reprogrammation cellulaire de cellules souches pluripotentes humaines. Ce modèle permet d'étudier les propriétés inhibitrices de la libération de la substance P par les composés à tester, étudié après la stimulation. Ce neuropeptide, la substance P, étant le principal neuromédiateur impliqué dans les voies de la sensibilisation dans l'inflammation neurogène, la douleur et le prurit.
L'étape initiale est la reprogrammation de cellules souches pluripotentes humaines par l'utilisation successive de différents cocktails de facteurs de croissance.
Les caractérisations phénotypiques et morphologiques ont permis de vérifier le pattern des neurones sensoriels avec notamment l'expression des récepteurs spécifiques tels que TrKA, 5HT-2, P2RX3 ou des canaux tels que TRPV1, Nav1.7, Nav1.8, TRPM8 avec une colocalisation avec des marqueurs neuronaux (Tuj1, Brn3A). Ces caractérisations permettent d'établir une durée de reprogrammation pour atteindre un pattern optimal qui est entre J40 et J47 après le début des traitements avec le cocktail des facteurs de croissance.
L'essai est réalisé sur le modèle de neurones sensoriels en culture dans un mélange de milieu (RPMI/N2/B27/Glutamax) en absence (conditions contrôle) ou en présence (groupes traités) des produits à tester. Ces deux conditions sont testées en présence de Vératridine ou en son absence. […] Les niveaux du neuropeptide qu'est la substance P sont quantifiés dix minutes après l'ajout de Veratridine. […]
La substance P libérée est mesurée dans les milieux d'incubation du groupe non traité (contrôle) et des groupes traités après ou non la stimulation de Vératridine. Elle est quantifiée par ELISA selon les instructions du fournisseur. […]

The mark [1] stands for this setting: 10µg/ml, Th17 stimulated anti-CD3/anti-CD28, 24h.

Take `COC(=O)C1=C(C)NC(C)=C(C(=O)OCCN(C)Cc2ccccc2)C1c1cccc([N+](=O)[O-])c1` (centres unmarked) [Nicardipine]: the “IL-22 (moyenne)” value with IL-22 (setting [1]) was determined as 440 pg/mL. In addition, the inhibition (usually the change of the read-out against control, counted positive when it falls) at 10 µg/mL in the test on IL-22 (Lymphocyte) turned out to be 37%; in the test with IL-17 (Lymphocyte) it was 43%. Moreover, the “IL-17 (moyenne)” value with IL-17 (setting [1]) turned out to be 721 pg/mL.

Take SLIGRL-NH2 [SLIGRL-NH2]: the pEC50 on PAR-2 was 6.28.

For `COc1ccc(C(=O)O[C@H]2CC[C@@]3(C)[C@@H]4CC[C@H]5[C@]6(O)C[C@H](O)[C@@]7(O)[C@@H](CN8C[C@@H](C)CC[C@H]8[C@@]7(C)O)[C@]6(O)C[C@@]53O[C@]24O)cc1OC` [Vératridine], the “substance P, Données brutes Moyenne” value with substance P (Vératridine 3µM alone (stimulus), 10 minutes) is reported as 96,26 pg/ml.

Regarding `CCN(CC)CC(=O)Nc1c(C)cccc1C` [Lidocaïne, lidocaïne], the “substance P, Données brutes Moyenne” value with substance P (100µM, under Vératridine 3µM stimulation) is 34,76 pg/ml. Further, the “libération de substance P (result in words)” value in the test on substance P (100µM, under Vératridine stimulation) is recorded as “réduit significativement la libération de substance P”.
